In patent publication US7491794B2, “Macrocyclic compounds as inhibitors of viral replication” (Intermune, Inc., priority 2003, dated 2009):
Read-outs that look alike come from different tables or passages of the source.

Experiments:
[1] = test system: HCV sub-genomic replicon, GS4.3; assay: Quantitation by ELISA of NPTII in the HCV sub-genomic replicon, GS4.3, Section C; assay type: cell-based; conditions: GS4.3 cells, 72 h incubation, read-out: EC50
From the text: Quantitation by ELISA of the selectable marker protein, Neomycin phosphotransferase II (NPTII) in the HCV Sub-Genomic Replicon, GS4.3
The HCV sub-genomic replicon (1377/NS3-3′, accession No. AJ242652), stably maintained in HuH-7 hepatoma cells, was created by Lohmann et al. Science 285: 110-113 (1999). The replicon-containing cell culture, designated GS4.3, was obtained from Dr. Christoph Seeger of the Institute for Cancer Research, Fox Chase Cancer Center, Philadelphia, Pa.
GS4.3 cells were maintained at 37° C., 5% CO2, in DMEM (Gibco 11965-092) supplemented with L-glutamine 200 mM (100×) (Gibco25030-081), non-essential amino acids (NEAA)(Biowhittaker 13-114E), heat-inactivated (HI) Fetal Bovine Serum(FBS)(Hyclone SH3007.03) and 750 μg/ml geneticin (G418)(Gibco 10131-035). Cells were sub-divided 1:3 or 4 every 2-3 days.
24 h prior to the assay, GS4.3 cells were collected, counted, and plated in 96-well plates (Costar 3585) at 7500 cells/well in 100 μl standard maintenance medium (above) and incubated in the conditions above. To initiate the assay, culture medium was removed, cells were washed once with PBS (Gibco 10010-023) and 90 μl Assay Medium (DMEM, L-glutamine, NEAA, 10% HI FBS, no G418) was added. Inhibitors were made as a 10× stock in Assay Medium, (3-fold dilutions from 10 μM to […] final concentration, final DMSO concentration 1%), 10 μl were added to duplicate wells, plates were rocked to mix, and incubated as above for 72 h.
An NPTII Elisa kit was obtained from AGDIA, Inc. (Compound direct ELISA test system for Neomycin Phosphotransferase II, PSP 73000/4800). Manufacturer's instructions were followed, with some modifications. 10×PEB-1 lysis buffer was made up to include 500 μM PMSF (Sigma P7626, 50 mM stock in isopropanol). After 72 h incubation, cells were washed once with PBS and 150 μl PEB-1 with PMSF was added per well. Plates were agitated vigorously for 15 minutes, room temperature, then frozen at −70° C. Plates were thawed, lysates were mixed thoroughly, and 100 μl were applied to an NPTII Elisa plate. A standard curve was made. Lysate from DMSO-treated control cells was pooled, serially diluted with PEB-1 with PMSF, and applied to duplicate wells of the ELISA plate, in a range of initial lysate amount of 150u1-2.5 ul. In addition, 100 μl buffer alone was applied in duplicate as a blank. Plates were sealed and gently agitated at room temperature for 2 h. Following capture incubation, the plates were washed 5×300 μl with PBS-T (0.5% Tween-20, PBS-T was supplied in the ELISA kit). For detection, a 1× dilution of enzyme conjugate diluent MRS-2 (5×) was made in PBS-T, into which 1:100 dilutions of enzyme conjugates A and B were added, as per instructions. Plates were resealed, and incubated with agitation, covered, room temperature, for 2 h. The washing was then repeated and 100 μl of room temperature TMB substrate was added. After approximately 30 minutes incubation (room temperature, agitation, covered), the reaction was stopped with 50 μl 3M sulfuric acid. Plates were read at 450 nm on a Molecular Devices Versamax plate reader.
Inhibitor effect was expressed as a percentage of DMSO-treated control signal, and inhibition curves were calculated using a 4-parameter equation: y=A+((B−A)/(1+((C/x)^D))), where C is half-maximal activity or EC50.

NS3-NS4 protease = target: T1, NS3-NS4 protease (Hepatitis C virus genotype 1a, UniProt P27958); assay: NS3-NS4 protease assay / NS3 inhibition assay, Section C; assay type: biochemical; conditions: read-out: NS3-NS4 IC50
T1 construct: Recombinant E. coli or Baculovirus full-length NS3 was diluted to 3.33 μM with assay buffer; made in house; host or cells: E. coli or baculovirus (BV) system
Procedure: NS3 complex formation with NS4A-2.
Recombinant E. coli or Baculovirus full-length NS3 was diluted to 3.33 μM with assay buffer and transfered material to an eppendorf tube and place in water bath in 4° C. refrigerator. The appropriate amount of NS4A-2 to 8.3 mM in assay buffer was added to equal the volume of NS3 in step 2.1.1 (conversion factor −3.8 mg/272 μL assay buffer). The material was transferred to an eppendorf tube and place in water bath in 4° C. refrigerator.
After equilibration to 4° C., equal volumes of NS3 and NS4A-2 solutions were combined in an eppendorf tube, mix gently with a manual pipettor, and incubate mixture for 15 minutes in the 4° C. water bath. Final concentrations in the mixture are […] NS3, 4.15 mM NS4A-2 (2485-fold molar excess NS4A-2).
After 15 minutes at 4° C., the NS3/NS4A-2 eppendorf tube was removed and place it in a room temperature water bath for 10 minutes. NS3/NS4A-2 was alliquoted at appropriate volumes and store at −80° C. (E. coli NS3 run at 2 nM in assay, aliquot at 25 μL. BV NS3 run at 3 nM in assay, aliquot at 30 μL).
Step 2.2.5. Sample compounds were dissolved to 10 mM in DMSO then diluted to 2.5 mM (1:4) in DMSO.
Step 2.2.6. The E. coli. NS3/NS4A-2 was diluted to 4 nM NS3 (1:417.5 of […] stock−18 μL 1.67 μM stock+7497 μL assay buffer). The BV NS3/NS4A-2 was diluted to 6 nM NS3 (1:278.3 of 1.67 μM stock−24 μL 1.67 μM stock+6655 μL assay buffer).
Step 2.2.7. Using the manual multichannel pipettor, and being careful not to introduce bubbles into the plate, 50 μL assay buffer were added to wells A01-H01 of a black Costar 96-well polypropylene storage plate.
Step 2.2.8. Using the manual multichannel pipettor, and being careful not to introduce bubbles into the plate, 50 μL of diluted NS3/NS4A-2 from step 2.2.6 were added to wells A02-H12 of plate in step 2.2.7.
Step 2.2.9. Using the manual multichannel pipettor, and being careful not to introduce bubbles into the plate, 25 μL of the wells in drug dilution plate in step 2.2.5 were transferred to corresponding wells in assay plate in step 2.2.8. The tips on multichannel pipettor were changed for each row of compounds transferred.
Step 2.2.10. Using the manual multichannel pipettor, and being careful not to introduce bubbles into the plate, the contents of the wells from the assay plate in step 2.2.9 were mixed by aspirating and dispensing 35 μL of the 75 μL in each well five times. The tips on the multichannel pipettor were changed for each row of wells mixed.
Step 2.2.11. The plate was covered with a polystyrene plate lid, and the plate from step 2.2.10 containing NS3 protease and sample compounds was pre-incubated 10 minutes at room temperature.
While the plate from step 2.2.11 was pre-incubating, the RETS1 substrate was diluted in a 15 mL polypropylene centrifuge tube. The RETS1 substrate was diluted to 8 μM (1:80.75 of 646 μM stock−65 μL 646 μM stock+5184 μL assay buffer).
After the plate in step 2.2.11 was done pre-incubating, and using the manual multichannel, 25 μL of substrate were added to all wells on the plate. The contents of the wells of plate were quickly mixed, as in step 2.2.10, but mixing 65 μL of the 100 μL in the wells.
The plate was read in kinetic mode on the Molecular Devices SpectraMax Gemini XS plate reader. Reader settings: Read time: 30 minutes, Interval: 36 seconds, Reads: 51, Excitation λ: 335 nm, Emission λ: 495 nm, cutoff: 475 nm, Automix: off, Calibrate: once, PMT: high, Reads/well: 6, Vmax pts: 21 or 28/51 depending on length of linearity of reaction.
IC50s were determined using a four parameter curve fit equation, and converted to Ki's using the following Km's:
where Ki=IC50/(1+[S]/Km))

T1 sequence (P27958 1027-1657): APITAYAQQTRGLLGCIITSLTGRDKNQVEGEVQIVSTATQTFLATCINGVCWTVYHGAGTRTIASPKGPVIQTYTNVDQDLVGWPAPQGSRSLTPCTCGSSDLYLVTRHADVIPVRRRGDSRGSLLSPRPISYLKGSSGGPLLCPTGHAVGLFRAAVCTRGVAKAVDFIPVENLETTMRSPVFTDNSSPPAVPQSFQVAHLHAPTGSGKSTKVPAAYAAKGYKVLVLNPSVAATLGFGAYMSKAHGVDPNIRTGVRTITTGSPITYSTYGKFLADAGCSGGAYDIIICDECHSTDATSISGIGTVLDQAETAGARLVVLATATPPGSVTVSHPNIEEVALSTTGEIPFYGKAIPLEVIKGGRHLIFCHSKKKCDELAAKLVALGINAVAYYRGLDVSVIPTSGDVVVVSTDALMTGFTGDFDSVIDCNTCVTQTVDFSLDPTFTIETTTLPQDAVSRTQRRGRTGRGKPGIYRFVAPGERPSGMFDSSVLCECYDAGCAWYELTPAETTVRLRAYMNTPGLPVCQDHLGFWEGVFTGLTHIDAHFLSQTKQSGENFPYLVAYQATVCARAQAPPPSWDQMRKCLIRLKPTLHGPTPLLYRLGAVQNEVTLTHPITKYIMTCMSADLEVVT

Structure (SMILES)	EC50 [1]	IC50 (NS3-NS4 protease)	EC50 ([1]; Hepatitis C virus)
CN(C)S(=O)(=O)NC(=O)[C@@]12C[C@H]1C=CCCCCC[C@H](NC(=O)OC(C)(C)C)C(=O)N1C[C@H](OC(=O)N3Cc4ccccc4C3)C[C@H]1C(=O)N2 [Compound 101, (1S,4R,6S,14S,18R)-1,3-Dihydro-isoindole-2-carboxylic acid 14-tert-butoxycarbonylamino-4-(N,N-dimethylsulfonyl-aminocarbonyl)-2,15-dioxo-3,16-diaza-tricyclo[14.3.0.0^4,6]nonadec-7-en-18-yl ester]	< 100 nM	< 100 nM	–
CC(C)(C)OC(=O)N[C@H]1CCCCC/C=C\[C@@H]2C[C@@]2(C(=O)NS(=O)(=O)NC2CC2)NC(=O)[C@@H]2C[C@@H](OC(=O)N3Cc4ccccc4C3)CN2C1=O [Compound 102]	–	< 100 nM	< 100 nM
CC(C)(C)OC(=O)N[C@H]1CCCCC/C=C\[C@@H]2C[C@@]2(C(=O)NS(=O)(=O)N2CCCC2)NC(=O)[C@@H]2C[C@@H](OC(=O)N3Cc4ccccc4C3)CN2C1=O [Compound 103, (1S,4R,6S,14S,18R)-1,3-Dihydro-isoindole-2-carboxylic acid 14-tert-butoxycarbonylamino-4-(pyrrolidinosulfonyl-aminocarbonyl)-2,15-dioxo-3,16-diaza-tricyclo[14.3.0.0^4,6]nonadec-7-en-18-yl ester]	–	< 100 nM	< 100 nM
CC(C)(C)OC(=O)N[C@H]1CCCCC/C=C\[C@@H]2C[C@@]2(C(=O)NS(=O)(=O)Nc2nccs2)NC(=O)[C@@H]2C[C@@H](OC(=O)N3Cc4ccccc4C3)CN2C1=O [Compound 105, (1S,4R,6S,14S,18R)-1,3-Dihydro-isoindole-2-carboxylic acid 14-tert-butoxycarbonylamino-4-(thiazol-2-ylaminosulfonylaminocarbonyl)-2,15-dioxo-3,16-diaza-tricyclo[14.3.0.0^4,6]nonadec-7-en-18-yl ester]	–	< 100 nM	–
CC(C)(C)OC(=O)N[C@H]1CCCCC/C=C\[C@@H]2C[C@@]2(C(=O)NS(=O)(=O)N2CCOCC2)NC(=O)[C@@H]2C[C@@H](OC(=O)N3CCc4ccccc4C3CN3CCCCC3)CN2C1=O (stereo partly drawn) [Compound 110, (1S,4R,6S,14S,18R)-1-Piperidin-1-ylmethyl-3,4-dihydro-1H-isoquinoline-2-carboxylic acid 14-tert-butoxycarbonylamino-2,15-dioxo-4-(morpholino-sulfonylaminocarbonyl)-3,16-diaza-tricyclo[14.3.0.0^4,6]nonadec-7-en-18-yl ester]	–	< 1000 nM	–
CC(C)(C)OC(=O)N[C@H]1CCCCC/C=C\[C@@H]2C[C@@]2(C(=O)NS(=O)(=O)N2CCCC2)NC(=O)C2C[C@@H](OC(=O)N3CCc4ccccc4C3CN3CCOCC3)CN2C1=O (stereo partly drawn) [Compound 111, (1S,4R,6S,14S,18R)-1-Morpholine-4-ylmethyl-3,4-dihydro-1H-isoquinoline-2-carboxylic acid 14-tert-butoxycarbonylamino-2,15-dioxo-4-(pyrrolidine-1-sulfonylaminocarbonyl)-3,16-diaza-tricyclo[14.3.0.0^4,6]nonadec-7-en-18-yl ester]	–	< 100 nM	–
CC(C)(C)OC(=O)N[C@H]1CCCCC/C=C\[C@@H]2C[C@@]2(C(=O)NS(=O)(=O)N2CCCC2)NC(=O)C2C[C@@H](OC(=O)NC(CN3CCOCC3)c3ccccc3)CN2C1=O (stereo partly drawn) [Compound 112, (1S,4R,6S,14S,18R)-(2-Morpholin-4-yl-1-phenyl-ethyl)-carbamic acid 14-tert-butoxycarbonylamino-2,15-dioxo-4-(pyrrolidine-1-sulfonylaminocarbonyl)-3,16-diaza-tricyclo[14.3.0.0^4,6]nonadec-7-en-18-yl ester]	–	< 100 nM	–
CC(C)(C)OC(=O)N[C@H]1CCCCC/C=C\[C@@H]2C[C@@]2(C(=O)NS(=O)(=O)N2CCNCC2)NC(=O)[C@@H]2C[C@@H](OC(=O)N3Cc4ccccc4C3)CN2C1=O [Compound 120, (1S,4R,6S,14S,18R)-1,3-Dihydro-isoindole-2-carboxylic acid 14-tert-butoxycarbonylamino-4-(piperazine-1-sulfonyl-aminocarbonyl)-2,15-dioxo-3,16-diaza-tricyclo[14.3.0.0^4,6]nonadec-7-en-18-yl ester]	–	< 100 nM	–
CC(C)(C)OC(=O)N[C@H]1CCCCC/C=C\[C@@H]2C[C@@]2(C(=O)NS(=O)(=O)NC2(C#N)CC2)NC(=O)[C@@H]2C[C@@H](OC(=O)N3Cc4ccccc4C3)CN2C1=O [Compound 123, (1S,4R,6S,14S,18R)-1,3-Dihydro-isoindole-2-carboxylic acid 14-tert-butoxycarbonylamino-4-(N-(1-cyanocyclopropyl)aminosulfonyl-aminocarbonyl)-2,15-dioxo-3,16-diaza-tricyclo[14.3.0.0^4,6]nonadec-7-en-18-yl ester]	–	< 100 nM	–
